Results on 17 compounds are retold here after the NIST ThermoML archive (doi:10.1021/je9003178).

± gives the expanded uncertainty stated by the source.

The data set is described as follows: activity coefficient (dimensionless); of the first substance listed, at infinite dilution; xn = mol fraction of the nth substance listed. Particulars: Liquid, Chromatography, x1 = 0.

With `CCCCCCCCCCCCC` [tridecane] + CCn1cc[n+](C)c1.N#CN=C=[N-], the activity coefficient came out at 1940 ± 94 (322.65 K), 1780 ± 86 (332.85 K) and 1650 ± 79 (343.15 K).

Take `CCCCCCCCC` [nonane] + CCn1cc[n+](C)c1.N#CN=C=[N-]: the activity coefficient (322.65 K) stood at 498 ± 24, the activity coefficient (332.85 K) turned out to be 446 ± 21 and the activity coefficient (343.15 K) is 401 ± 19.

In the case of `CC(C)OC(C)C` [diisopropyl ether] + CCCCCC[N+](C)(C)C.O=S(=O)([N-]S(=O)(=O)C(F)(F)F)C(F)(F)F, the activity coefficient runs as follows: (322.65 K) 3.2 ± 0.15; (343.85 K) 4.03 ± 0.18; (352.65 K) 4.12 ± 0.19.

In the case of `CCCCO` [butan-1-ol] + CCn1cc[n+](C)c1.N#CN=C=[N-], the activity coefficient turned out to be 1.59 ± 0.06 (322.65 K), 1.47 ± 0.06 (332.85 K) and 1.4 ± 0.05 (343.15 K).

For `CCCCCCCCCCCCC` [tridecane] + CCCCCC[N+](C)(C)C.O=S(=O)([N-]S(=O)(=O)C(F)(F)F)C(F)(F)F, the activity coefficient (322.65 K) was 100 ± 4.7, the activity coefficient (343.85 K) worked out at 76.2 ± 3.6 and the activity coefficient (352.65 K) stood at 71.5 ± 3.3.

Turning to `CCCCCCCCC` [nonane] + CCCCCC[N+](C)(C)C.O=S(=O)([N-]S(=O)(=O)C(F)(F)F)C(F)(F)F, the activity coefficient runs as follows: (322.65 K) 28.9 ± 1.3; (343.85 K) 24.6 ± 1.1; (352.65 K) 23.4 ± 1.1.

On to `CCN(CC)CC` [triethylamine] + CCn1cc[n+](C)c1.N#CN=C=[N-], for which the activity coefficient was found to be 9.09 ± 0.42 (322.65 K), 35.8 ± 1.7 (332.85 K) and 131 ± 6.2 (343.15 K).

Regarding `CCCCCCCCCC` [decane] + CCCCCC[N+](C)(C)C.O=S(=O)([N-]S(=O)(=O)C(F)(F)F)C(F)(F)F, the activity coefficient (322.65 K) was found to be 36.8 ± 1.7, the activity coefficient (343.85 K) is 31 ± 1.4 and the activity coefficient (352.65 K) came out at 29.6 ± 1.4.

As to `C1CCOC1` [tetrahydrofuran] + CCCCCC[N+](C)(C)C.O=S(=O)([N-]S(=O)(=O)C(F)(F)F)C(F)(F)F, the activity coefficient reads like this: (322.65 K) 0.686 ± 0.03; (343.85 K) 0.754 ± 0.029; (352.65 K) 0.808 ± 0.028.

Regarding `c1ccccc1` [benzene] + CCCCCC[N+](C)(C)C.O=S(=O)([N-]S(=O)(=O)C(F)(F)F)C(F)(F)F, the activity coefficient reads like this: (322.65 K) 0.99 ± 0.025; (343.85 K) 0.993 ± 0.025; (352.65 K) 1.02 ± 0.026.

Take `ClCCl` [dichloromethane] + CCn1cc[n+](C)c1.N#CN=C=[N-]: the activity coefficient (322.65 K) is 0.67 ± 0.03, the activity coefficient (332.85 K) is 0.73 ± 0.03 and the activity coefficient (343.15 K) was 0.78 ± 0.03.

On to `CC1CCCCC1` [methylcyclohexane] + CCn1cc[n+](C)c1.N#CN=C=[N-], for which the activity coefficient by setting is: (322.65 K) 73.9 ± 3.5; (332.85 K) 67.1 ± 3.1; (343.15 K) 61.3 ± 2.9.

For `c1ccncc1` [pyridine] + CCCCCC[N+](C)(C)C.O=S(=O)([N-]S(=O)(=O)C(F)(F)F)C(F)(F)F, the activity coefficient worked out at 0.336 ± 0.035 (322.65 K), 0.589 ± 0.031 (343.85 K) and 0.607 ± 0.031 (352.65 K).

Turning to `C[N+](=O)[O-]` [nitromethane] + CCn1cc[n+](C)c1.N#CN=C=[N-], the activity coefficient runs as follows: (322.65 K) 0.66 ± 0.03; (332.85 K) 0.64 ± 0.03; (343.15 K) 0.63 ± 0.03.

As to `CCCCCCCCCCCCCC` [tetradecane] + CCn1cc[n+](C)c1.N#CN=C=[N-], the activity coefficient runs as follows: (322.65 K) 2500 ± 120; (332.85 K) 2330 ± 110; (343.15 K) 2190 ± 110.

With `CCOCC` [diethyl ether] + CCn1cc[n+](C)c1.N#CN=C=[N-], the activity coefficient reads like this: (322.65 K) 9.88 ± 0.45; (332.85 K) 9.71 ± 0.45; (343.15 K) 9.56 ± 0.44.

On to `CCC(C)=O` [butanone] + CCCCCC[N+](C)(C)C.O=S(=O)([N-]S(=O)(=O)C(F)(F)F)C(F)(F)F, for which the activity coefficient (322.65 K) was 0.422 ± 0.034, the activity coefficient (343.85 K) turned out to be 0.365 ± 0.035 and the activity coefficient (352.65 K) came out at 0.354 ± 0.035.
